Reference: a melting point compilation (Tetko et al.; mined from patent text by program, amines drawn as free bases though some values may be those of a salt)

SMILES	melting point [°C]
Cc1ccc(N2C(=O)N(CC(=O)Nc3c(C(C)C)cccc3C(C)C)C(=O)C23CCC(O)CC3)cc1 (stereo not drawn)	142 to 144
CN1CCc2ccc(O)cc2[C@@H](c2ccccc2)C1	90 to 92
CCNc1ncc(Nc2ccc(Cl)cc2)nc1-n1nc(C)cc1C	122 to 124
O=C(OCc1ccccc1)c1ccc(O)c(CO)c1	109 to 110
COC(=O)c1cc2c(nc1C)C(COC(=O)Oc1ccc([N+](=O)[O-])cc1)CCCC2 (stereo not drawn)	116 to 117
CCOC(=O)C(C#N)CCCCCCc1ccc(Cl)cc1 (stereo not drawn)	121 to 122
Cc1ccc(C2Sc3cc(C)ccc3NC(=O)C2=O)cc1 (stereo not drawn)	142 to 144
CCOC(=O)c1cn(C)c2nc3cc(N4CCNC(c5ccc(N)cc5)C4)c(F)cc3cc2c1=O (racemic)	180 to 182
COc1ccccc1-c1ccc(C(=O)N2Cc3ccc(C(=O)NCCc4ccc(O)cc4)n3Cc3ccccc32)cc1C	138 to 147
CC12CCC3C(CCC4CC(F)CCC43C)C1CCC2=O (stereo not drawn)	126 to 127
CCOC(=O)C(Cc1ccc(C(F)(F)F)cc1)C(=O)c1ccc(F)cc1 (stereo not drawn)	56 to 57
Cc1cc2c(-c3cccc(/C=C/C(=O)O)c3)c(CC(=O)Nc3ccc(Cl)cc3C(F)(F)F)c(=O)oc2cc1Cl	191 to 194
CC1=NC2CN=C(c3ccccc3F)c3cc(Cl)ccc3C2C(=O)N1 (stereo not drawn)	150 to 165
COC(=O)c1cc(N)c(Oc2ccccc2)c(N2C(=O)CCC2=O)c1	199 to 200
CCOc1c(C)c(C)c(O)c(CNCCOc2cc(C)ccc2C(C)C)c1C	99 to 101
Cc1ccc(S(=O)(=O)OCC(O)(CC(C)c2ccccc2)C(F)(F)F)cc1 (stereo not drawn)	95 to 96
C=Cc1cc2cccnc2c(-c2cccc([N+](=O)[O-])c2)n1	145 to 151
O=C(NCC(c1ccccc1)c1ccccc1)C1Cc2ccccc2N1S(=O)(=O)c1ccc(-c2ccc(F)cc2)cc1 (stereo not drawn)	80 to 82
CC(C)n1nc(-c2cc(C#N)c(N)nc2-c2ccccc2)ccc1=O	197 to 198
Cc1cccc(-c2[nH]c(C(C)C)nc2-c2cccc(-c3ccc(S(=O)(=O)N4CCOCC4)cc3)c2)n1	88 to 92
Cc1ccc(N(c2ccc(C)cc2)c2ccc(C=Cc3cc(O)cc(O)c3)cc2)cc1	161
Cc1c(C)c2c(c(C)c1O)CCC(C)(CC(=O)N(C)C)O2 (stereo not drawn)	142
O=[N+]([O-])c1ccc2c(c1)C=C(N1CCN(Cc3ccc4c(c3)OCO4)CC1)c1ccccc1S2	188 to 190
COc1ccc(C=C2NC(=O)N(C)C2=O)cc1	221 to 222
OCc1cc2ccc3ccccc3c2o1	106 to 107

SMILES	melting point [°C]
CC(C)(C)C(=O)OC1CCCCC1=O (stereo not drawn)	35 to 36
COc1ccc(CNc2nc(N3CCCC3CO)nnc2C(=O)NCc2ncccn2)cc1Cl (stereo not drawn)	170 to 173
CCOC(=O)CC(=O)c1cc(Oc2ccccc2)c(NS(C)(=O)=O)cc1OCc1ccccc1	85 to 90
CCOC(=O)c1c(C(F)(F)F)nc(C(F)F)c(C(=O)OC)c1NCC(F)(F)F	64 to 66
CCOC(=O)c1ncc2[nH]c3ccc(Oc4ccc(OC)cc4)cc3c2c1COC	154
CCOC(=O)c1cn(NC=O)c2cc(Cl)c(F)cc2c1=O	263 to 264
O=C1Cc2cc(NC(=O)C(=O)O)ccc2N1	256
COC(=O)C1(Cl)C[C@H](OC(C)=O)[C@@H](NC(C)=O)[C@H]([C@H](OC(C)=O)[C@@H](COC(C)=O)OC(C)=O)O1 (stereo partly drawn)	116 to 118
C=C1C(=C)C2C(CCC3(C)C2CCC3(O)C(C)=O)C2(C)CCC(=O)C=C12 (stereo not drawn)	274 to 276
CC(NC(=O)n1c(=O)nc(N(C)C)n1C)c1ccccc1 (stereo not drawn)	103
COc1cc2nc(N3CCN(C(=O)CC(C)O)CC3)nc(N)c2cc1OC (stereo not drawn)	220 to 222
CCOC(=O)[C@H](O)[C@@H](NC(=O)OC(C)(C)C)c1ccc(C)cc1	130
O=C(O)Cc1ccc(NC(=O)C(COc2ccccc2)NS(=O)(=O)c2ccc(I)cc2)cc1 (racemic)	224 to 225
COc1nc2ccccc2cc1NC(=O)N1CCN(c2cccc3ccccc23)CC1	158 to 160
CN(O)C(=O)NC1CCCc2sccc21 (stereo not drawn)	98 to 102
C=C1CN(c2c(F)cc3c(=O)c(C(=O)O)cn([C@@H]4C[C@@H]4F)c3c2OC)C[C@@]1(C)N	100 to 102
CC(C)(C)C(=O)c1occc1C(=O)O	85 to 89
O=[N+]([O-])c1cn(-c2cccnc2)nc1Cl	139 to 142
O=C(NN=C(c1ccc(Cl)cc1)c1ccc(OC(F)(F)C(Cl)Cl)cc1)c1ccccc1	121 to 122
CC(=O)Nc1c(C(=O)c2ccccc2)[nH]c2ccc(Cl)cc12	200 to 201
CCOC(=O)CCc1c(-c2ccccc2)c2cc(C)c(C)cc2c(=O)n1C	138 to 139
O=C(Nc1ccc(Oc2ccnc(NCC3OCCO3)n2)c2ccccc12)c1cc(F)cc(N2CCOCC2)c1	122 to 124
c1ccc([C@H]2CC[C@@H](Oc3ncnc4c3CCCC4)CC2)cc1	109
Nc1cnccc1N1CCc2ccccc21	89
CCOC(=O)C=Cc1cn(C(=O)OC(C)(C)C)c2cnc(-n3cncn3)cc12	178 to 181

SMILES	melting point [°C]
CCc1c(CC(=O)O)c(C)nc(C)c1Cc1nc2c(F)c(F)cc(F)c2s1	193 to 195
FCc1cc(Cl)n2nc(SCc3ccccc3)nc2n1	81 to 86
Cc1cc(OS(=O)(=O)c2c(F)cccc2F)cc2c(C3CCN(C)CC3)cn(Cc3ccccc3)c12	158
CC(C)(C)OC(=O)N1CCc2c(n(CCCc3ccccc3)c3cc(Cl)c(Cl)cc23)CC1	119 to 124
O=[N+]([O-])c1ccc2c(c1)OC(CC(F)(F)F)(C(F)(F)F)O2 (stereo not drawn)	87 to 88
CCCNC(=O)n1nc(Oc2c(Cl)cc(C(F)(F)F)cc2[N+](=O)[O-])cc1C	111 to 113
NS(=O)(=O)C1CCCCC1=O (stereo not drawn)	118 to 119
O=C(CCc1ccccc1)N1C(=O)OC[C@@H]1Cc1ccccc1	92 to 95
COc1c(F)cc2c(=O)c(C(=O)O)cn3c2c1CCC3C (stereo not drawn)	234 to 236
O=C1c2ccccc2Cc2c(O)cccc21	230 to 233
COc1ccc(Cn2nnnc2C(=O)Nc2cc(C(F)(F)F)cc(NC(=O)c3nnnn3Cc3ccc(OC)cc3)c2Cl)cc1	185 to 186
O=C(Nc1cccnc1)N1CCc2ccccc2CC1	144 to 146
O=C(O)C1C2CC3C(C2=O)C31 (stereo not drawn)	144 to 145
COC(=O)c1ccc(Cn2c(=O)c(-c3c(Cl)cccc3Cl)cc3cnc(N)nc32)cc1	235 to 237
COc1cccc(OC)c1CC(=O)N1C[C@@H]2C(=O)CCC(c3ccccc3)(c3ccccc3)[C@@H]2C1 (racemic)	224
N#Cc1cc(Cl)ncc1Cl	55 to 58
O=C(c1ccccc1)c1ccc(-c2ccc(-c3ccc(-c4ccc(C(=O)c5ccccc5)s4)s3)s2)s1	307 to 310
CCOC(=O)c1cn(C2CC2)c2c(F)c(F)c(F)c(F)c2c1=O	170 to 171
CCCCCCCCCCOc1ccc(-c2ccc(C#CCCC(C)OC(C)=O)cc2)cc1 (stereo not drawn)	80 to 82
Cn1c(C(N)=O)nc([N+](=O)[O-])c1C#N	265 to 267
O=C(CCCCCNC(=O)c1cccc2ccccc12)NO	118 to 119
Nc1cnc2cc(F)c(F)cc2c1	155
Nc1c(-c2cc(Cl)ccc2O)c2cc(Cl)c(C(F)(F)F)cc2[nH]c1=O	245 to 246
N#Cc1ccc(C2=NOC3(CCN(C(=O)CCCC(=O)O)CC3)C2)cc1	183 to 185
Cn1c2cc(Cl)ccc2c2c(C(=O)O)nc(-c3ccccc3)nc21	208 to 209

SMILES	melting point [°C]
COCOc1c(-c2cncc3cccc([N+](=O)[O-])c23)ccc(OC)c1OC	138 to 140
CC(C)(C)c1cc(Cc2cc(C(C)(C)C)cc(C(C)(C)C)c2O)c(O)c(-n2nc3ccccc3n2)c1	208
CC(C)(C)CC1(C)CC(C)(C)c2ccc(O)cc21 (stereo not drawn)	102
COC(=O)C[C@H]1C[C@H](C(=O)O)Nc2cc(Cl)cc(Cl)c21 (relative stereo)	181 to 182
O=C1Nc2ccccc2Sc2nccn21	250 to 252
Cn1nc2ccc3nc(O)c(O)nc3c2n1	> 300
Oc1ccc(O)c2nccnc12	234 to 236
CCOC(=O)C1=CC2(CCC1S(=O)(=O)Nc1ccc(F)cc1Cl)S(=O)(=O)CCS2(=O)=O (stereo not drawn)	88 to 90
COc1ccc(C2=NN(c3ccc(CC(=O)O)cc3)C(=O)C(C)(C)C2)cc1OC	186 to 188
CCOc1nc(NCc2ccco2)nc(Nc2ccc(O)cc2)n1	45
CSc1ccc2c(n1)C(c1ccccc1)=[N+]([O-])Cc1nncn1-2	190 to 192
CC(C)=CCn1ncc(-c2ccc(S(C)(=O)=O)cc2)c(-c2ccc(F)cc2)c1=O	169 to 172
O=C(O)C1CCCC1c1ccc2c(c1)OC[C@H](Cc1ccccc1)[C@H]2O (relative stereo)	129 to 130
CC(=O)OCCCOc1ccc2nc3c(cc2c1)NCN3	301 to 303
CN(C)CCc1ccc([N+](=O)[O-])c2[nH]ncc12	145 to 146
O=C(CCNC(=O)C(Cc1ccccc1)CP(=O)(O)O)OCc1ccccc1 (stereo not drawn)	122 to 123
CCCCCCCCCCCC(=O)N1CCN(CCO)CC1	38 to 40
COc1ccn(-c2nc(C)c(C(=O)NCc3ccccc3)s2)c(=O)c1	205 to 208
O=C(Nc1ccc(F)cc1)N1CCCCN1	78.5 to 79.5
CCCc1nn(C)c2c(=O)[nH]c(Cc3ccc(S(=O)(=O)N[C@@H](CO)C(N)=O)cc3)nc12	226 to 229
NC(=O)CCCC(=O)NCCS	127
Cn1c(=S)n(C)c(=O)n(-c2cc(O)c(Cl)cc2F)c1=O	242 to 246
CN(CCC1CCN(c2noc3cc(F)ccc23)CC1)C(=O)c1noc2ccccc12	94 to 97
